Assay: Solubility in pure water at room temperature
Type: physicochemical

## COc1cc(C[C@H]2C(=O)OC[C@@H]2Cc2ccc(OC)c(OC)c2)ccc1O [arctigenin raw material, arctigenin]
  solubility (water solubility of arctigenin): < 0.05%

Reference: US12048684B2, “Arctigenin liquid nano-preparation and preparation method thereof” (Wuhan Academy of Agricultural Sciences, priority 2022, dated 2024)
